In patent publication US9301951B2 (Ardelyx, Inc., priority 2010, dated 2016):

Assays:
[1] = Fecal recovery of orally administered compounds; assay type: in vivo; settings: rat; oral gavage; feces collected until 48 hr after dosing
From the text: In this respect, it is understood that a recovered compound can include the sum of the parent compound and its metabolites derived from the parent compound, e.g., by means of hydrolysis, conjugation, reduction, oxidation, N-alkylation, glucuronidation, acetylation, methylation, sulfation, phosphorylation, or any other modification that adds atoms to or removes atoms from the parent compound, wherein the metabolites are generated via the action of any enzyme or exposure to any physiological environment including, pH, temperature, pressure, or interactions with foodstuffs as they exist in the digestive milieu. Measurement of fecal recovery of compound and metabolites can be carried out using standard methodology. For example, compound can be administered orally at a suitable dose (e.g., 10 mg/kg) and feces are then collected at predetermined times after dosing (e.g., 24 hours, 48 hours, 72 hours). Parent compound and metabolites can be extracted with organic solvent and analyzed quantitatively using mass spectrometry. A mass balance analysis of the parent compound and metabolites (including, parent=M, metabolite 1 [M+16], and metabolite 2 [M+32]) can be used to determine the percent recovery in the feces.
Quantitative determination of test compound level in feces after oral gavage was performed using the same set of animals used to determine test compound concentration in plasma (Example 352). The animals were kept in metabolic cages and feces were collected from the time of dosing until 48 hr after dosing. Upon collection, feces were dried by lyophilization and ground to a visually homogenous powder. Duplicate samples of ground feces from each individual animal were weighed out and extracted using organic solvent. Extracted samples were then diluted into mobile phase and test compound levels were quantitatively determined by LC-MS/MS analysis as described in Example 352 except that the standard curve was prepared in a feces matrix. Extraction conditions were not optimized for individual compounds, and thus may represent a minimal level of recovery.

Sprague-Dawley rats [2] = test: In vivo bolus phosphorus challenge (serum phosphate elevation); settings: rat; oral; drug dose 30; phosphate bolus 15 min after compound; serum 30 min post bolus
Experimental: By pretreating animals with a low phosphorus diet followed by the subsequent dosing of a phosphorus bolus, serum phosphorus levels were monitored after 30 minutes as a surrogate for intestinal phosphorus absorption. […] The in vivo bolus phosphorus challenge model used here mimics this model in rats.
Male, 7-week-old Sprague-Dawley rats (Charles-River laboratories international, Hollister, Calif.) were allowed to acclimatize for a minimum of 3 days before switching to a synthetic low-phosphorus diet (TD.85010, Harlan Teklad, Madison, Wis.) which contains 0.1% phosphorus and 0.6% calcium. At day 5, testing compounds or vehicle alone (as indicated) were orally administered at the indicated dose in a volume of 5 ml/kg, followed by a bolus gavage of monobasic sodium phosphate (1 mmol in 1 ml) 15 min after compound dosing. Serum was collected via retroorbital bleeding 30 min post phosphate bolus and phosphate levels were determined utilizing an ACE ALERA blood chemistry analyzer (Alfa Wassermann Diagnostic Technologies, West Caldwell, N.J.).
The extent of inhibition by test compounds on the elevation of serum phosphate levels in response to the bolus of phosphorus is shown in Table 12 (data are expressed as % Inhibition, with 6-10 animals per data point). The differences between groups were evaluated by one-way analysis of variance with Dunnett's post hoc tests.

Sprague-Dawley rats [3] = test: In vivo co-dosing in chow (urine P out / P consumed); settings: feed or water; rat; drug in chow, nominal 100 mg/kg/day (mean dose per line in table); urine 24-96 h; read-out: Mean % inhibition Urine Pout/P consumed
From the text: Male, 7-week-old Sprague-Dawley rats (Charles-River laboratories international, Hollister, Calif.) were allowed to acclimate for a minimum of 3 days. The experiment was initiated by switching animals to a synthetic diet (0.6% phosphorus and 0.6% calcium, Harlan Teklad TD.84122) for four days. After this time, the animals were placed into metabolic cages for daily monitoring of food and water consumption, as well as urine and fecal collections. Test compounds were incorporated into the powdered diet listed above containing 3% chocolate flavoring (w/w, BioServ #7345) at 1.3 mg test compound per gram of diet to achieve an average daily nominal dose of 100 mg/kg/day. The actual dose received by each animal was later determined by measuring prepared diet consumption and body weight. Urine samples were collected in three daily periods from 24-48, 48-72, and 72-96 hours of drug dosing. […] Phosphorus levels in the urine were determined by anion exchange chromatography using a Dionex ICS-3000 ion chromatography system. […] Elution of urine phosphate ions was monitored via conductivity detector and reported as ppm relative to a standard ion solution containing phosphate. Daily urinary P output relative to the P consumed in the prepared diet for each animal was calculated. […] The differences between the means of control and treated groups were evaluated by t tests. […]

[4] = test system: 5/6 nephrectomy (5/6Nx) rat model of CKD; test: In vivo evaluation in CKD rats (5/6 nephrectomy, 0.9% P diet, calcitriol); settings: study 1, drug in chow, 2 weeks
Experimental: To assess the ability of selected example compounds to impact the progression of chronic kidney disease (CKD), 5/6 nephrectomy (5/6Nx) rat model of CKD was used. […] 5/6 Nx rats were obtained from Charles River Labs (CRL, Hollister, Calif.). Upon arrival, the surgeries and extent of kidney damage in the animals were assessed by measuring serum creatinine, P, Ca, and BUN. Based on this analysis, rats with inconsistent kidney function were removed from the study and the remainder of the cohort was divided in to evenly stratified test groups. The remaining animals were then placed on the same synthetic diet used in the drug-in-chow studies (Example 350), except the P levels were adjusted to 0.9% P. Drugs are blended into this chow to achieve the required dosing rate. At this time, rats were also started on an activated Vitamin D regimen in which they were injected intraperitoneally with calcitriol at 80 ng/kg three times a week. Once a week, serum was collected via retro orbital bleeding for analysis of serum P and creatinine utilizing an ACE ALERA blood chemistry analyzer. […] Unless otherwise indicated, the data shown is from the serum collected at 2 weeks after initiation of the treatment regimen. In addition, for study #3, during the third week of the study, the animals were placed in metabolic cages for two days, and urine collected for the final 24 hours.

[5] = Stability of compounds in simulated intestinal fluid (SIF); assay type: in vitro ADME; settings: simulated intestinal fluid (USP, 3 mg/mL pancreatin), 1-20 μM, incubation time 6 hr, relative to t=0
Experimental: Test compounds were incubated at 1-20 μM in simulated gastric fluid (SGF; standard USP solution with 3 mg/mL pepsin) or simulated intestinal fluid (SIF; standard USP solution with 3 mg/mL pancreatin) for 3 hr or 6 hr. HPLC-UV or HPLC-MS were used to determine test compound levels using peak area %. Results (Table 14) were reported as the percentage of test compound remaining after incubation in a given condition relative to test compound present at t=0 in the same condition.

O=C(O)CCSCc1cccc(C(=O)Nc2ccc(N3CCCCC3)cc2-c2cc(C(=O)NCc3cccc(C(F)(F)F)c3)ccn2)c1 [Example 1.1, 3-(3-((2-(4-((3-(trifluoromethyl)benzyl)carbamoyl)pyridin-2-yl)-4-(piperidin-1-yl)phenyl)carbamoyl)-benzylthio)propanoic acid]
% recovered in feces [1]: 20-80% | % Inhibition of Serum P elevation (Sprague-Dawley rats [2]): 20-30%

CCN(CC)c1ccc(NC(=O)c2cccc(C(=O)N(C)CCN3CCOCC3)c2)c(-c2cc(C(=O)NCc3cccc(C(F)(F)F)c3)ccn2)c1 [Example 25, N1-(4-(Diethylamino)-2-(4-((3-(trifluoromethyl)benzyl)carbamoyl)pyridin-2-yl)phenyl)-N3-methyl-N3-(2-morpholinoethyl)isophthalamide]
inhibition in vivo at 100 mg/kg/day (Sprague-Dawley rats [3]): 10 to 30% | Ser CRE [4]: 1.3 mg/dL | Ser P [4]: 10 mg/dL | FGF23, pg/mL ([4]; serum): ~10,000 pg/mL | % recovered in feces [1]: 20-80% | % remaining, SIF [5]: 80%
